Assay results taken from patent publication US20250122174A1 (Shenzhen Yuanli Shenwan Innovative Medicine Co., Ltd., priority 2022, published 2025).

Target: HPK1 (Homo sapiens (Human), UniProt Q92918)
Assay: HPK1 Inhibition Assay (ADP-Glo kinase assay)
Format: biochemical
Conditions: ATP 10 μM
In short: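 ADP-Glo luminescence read-out after 1 h room-temperature kinase reaction with 10 μM ATP and 0.1 μg/ml MBP. Recombinant human HPK1 at 7.5 ng/μl; buffer 40 mM Tris pH 7.5, 20 mM MgCl2. Compounds serially diluted 5-fold over 10 points from 10 mM DMSO stock.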

Chain of HPK1 (Q92918 1-346 limits assumed): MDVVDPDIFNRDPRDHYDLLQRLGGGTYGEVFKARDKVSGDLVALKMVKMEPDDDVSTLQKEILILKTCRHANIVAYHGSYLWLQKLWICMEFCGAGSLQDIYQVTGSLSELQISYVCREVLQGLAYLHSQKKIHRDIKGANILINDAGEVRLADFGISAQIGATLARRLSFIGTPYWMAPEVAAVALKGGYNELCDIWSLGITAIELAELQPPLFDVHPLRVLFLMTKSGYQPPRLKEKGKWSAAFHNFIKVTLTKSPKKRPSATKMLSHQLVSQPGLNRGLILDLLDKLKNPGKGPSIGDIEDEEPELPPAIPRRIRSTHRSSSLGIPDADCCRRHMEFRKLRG

Compound | IC50 [nM]
CC1(C)CN(c2c(NC(=O)c3ccc(=O)n(-c4c(F)cccc4F)n3)ccc3nn([C@H]4CCOC4)cc23)C[C@H]1N [Example 325, N-(4-((S)-4-amino-3,3-dimethylpyrrolidin-1-yl)-2-((S)-tetrahydrofuran-3-yl)-2H-indazol-5-yl)-1-(2,6-difluorophenyl)-6-oxo-1,6-dihydropyridazine-3-carboxamide] | < 100
C[C@H]1CN(c2c(NC(=O)c3ccc(=O)n(-c4c(F)cccc4F)n3)ccc3nn([C@@H]4CCOC4)cc23)C[C@@H]1N [Example 326, N-(4-((3R,4S)-3-amino-4-methylpyrrolidin-1-yl)-2-((R)-tetrahydrofuran-3-yl)-2H-indazol-5-yl)-1-(2,6-difluorophenyl)-6-oxo-1,6-dihydropyridazine-3-carboxamide] | < 100
C[C@H]1CN(c2c(NC(=O)c3ccc(=O)n(-c4c(F)cccc4F)n3)ccc3nn([C@H]4CCOC4)cc23)C[C@@H]1N [Example 327, N-(4-((3R,4S)-3-amino-4-methylpyrrolidin-1-yl)-2-((S)-tetrahydrofuran-3-yl)-2H-indazol-5-yl)-1-(2,6-difluorophenyl)-6-oxo-1,6-dihydropyridazine-3-carboxamide] | < 100
COCCn1cc2c(N3CC[C@@H](N)C3)c(NC(=O)c3ccc(=O)n(-c4c(F)cccc4F)n3)ccc2n1 [Example 328, (R)-N-(4-(3-aminopyrrolidin-1-yl)-2-(2-methoxyethyl)-2H-indazol-5-yl)-1-(2,6-difluorophenyl)-6-oxo-1,6-dihydropyridazine-3-carboxamide] | < 100
CCn1cc2c(N3CC[C@@H](N)C3)c(NC(=O)c3ccc(=O)n(-c4c(F)cccc4F)n3)ccc2n1 [Example 329, (R)-N-(4-(3-aminopyrrolidin-1-yl)-2-ethyl-2H-indazol-5-yl)-1-(2,6-difluorophenyl)-6-oxo-1,6-dihydropyridazine-3-carboxamide] | < 100
N[C@@H]1CCN(c2c(NC(=O)c3ccc(=O)n(-c4c(F)cccc4F)n3)ccc3nn(CC4CC4)cc23)C1 [Example 330, (R)-N-(4-(3-aminopyrrolidin-1-yl)-2-(cyclopropylmethyl)-2H-indazol-5-yl)-1-(2,6-difluorophenyl)-6-oxo-1,6-dihydropyridazine-3-carboxamide] | < 100
CC(C)Cn1cc2c(N3CC[C@@H](N)C3)c(NC(=O)c3ccc(=O)n(-c4c(F)cccc4F)n3)ccc2n1 [Example 331, (R)-N-(4-(3-aminopyrrolidin-1-yl)-2-isobutyl-2H-indazol-5-yl)-1-(2,6-difluorophenyl)-6-oxo-1,6-dihydropyridazine-3-carboxamide] | < 100
C[C@@H]1CN(c2c(NC(=O)c3ccc(=O)n(-c4c(F)cccc4F)n3)ccc3nn(C4CCC(F)(F)CC4)cc23)C[C@@H]1N [Example 332, N-(4-((3R,4R)-3-amino-4-methylpyrrolidin-1-yl)-2-(4,4-difluorocyclohexyl)-2H-indazol-5-yl)-1-(2,6-difluorophenyl)-6-oxo-1,6-dihydropyridazine-3-carboxamide] | < 100
C[C@@H]1CN(c2c(NC(=O)c3ccc(=O)n(-c4c(F)cccc4F)n3)ccc3nn(C4CCCC4)cc23)C[C@@H]1N [Example 333, N-(4-((3R,4R)-3-amino-4-methylpyrrolidin-1-yl)-2-cyclopentyl-2H-indazol-5-yl)-1-(2,6-difluorophenyl)-6-oxo-1,6-dihydropyridazine-3-carboxamide] | < 100
CC1(C)CN(c2c(NC(=O)c3ccc(=O)n(-c4c(F)cccc4F)n3)ccc3nn(C4CC4)cc23)C[C@@H]1N [Example 334, (R)-N-(4-(4-amino-3,3-dimethylpyrrolidin-1-yl)-2-cyclopropyl-2H-indazol-5-yl)-1-(2,6-difluorophenyl)-6-oxo-1,6-dihydropyridazine-3-carboxamide] | < 100
CC1(C)CN(c2c(NC(=O)c3ccc(=O)n(-c4c(F)cccc4F)n3)ccc3nn(C4CC4)cc23)C[C@H]1N [Example 335, (S)-N-(4-(4-amino-3,3-dimethylpyrrolidin-1-yl)-2-cyclopropyl-2H-indazol-5-yl)-1-(2,6-difluorophenyl)-6-oxo-1,6-dihydropyridazine-3-carboxamide] | < 100
N[C@H]1CN(c2c(NC(=O)c3ccc(=O)n(-c4c(F)cccc4F)n3)ccc3nn(C4CC4)cc23)CC12CC2 [Example 336, (R)-N-(4-(7-amino-5-azaspiro[2.4]heptan-5-yl)-2-cyclopropyl-2H-indazol-5-yl)-1-(2,6-difluorophenyl)-6-oxo-1,6-dihydropyridazine-3-carboxamide] | < 100
N[C@@H]1CCN(c2c(NC(=O)c3ccc(=O)n(-c4c(F)cccc4F)n3)ccc3nn(C4CCOCC4)cc23)C1 [Example 337, (R)-N-(4-(3-aminopyrrolidin-1-yl)-2-(tetrahydro-2H-pyran-4-yl)-2H-indazol-5-yl)-1-(2,6-difluorophenyl)-6-oxo-1,6-dihydropyridazine-3-carboxamide] | < 100
N[C@@H]1CCN(c2c(NC(=O)c3ccc(=O)n(-c4c(F)cccc4F)n3)ccc3nn(CC(F)(F)F)cc23)C1 [Example 338, (R)-N-(4-(3-aminopyrrolidin-1-yl)-2-(2,2,2-trifluoroethyl)-2H-indazol-5-yl)-1-(2,6-difluorophenyl)-6-oxo-1,6-dihydropyridazine-3-carboxamide] | < 100
[2H]C([2H])([2H])C(n1cc2c(N3C[C@H](N)C4(CC4)C3)c(NC(=O)c3ccc(=O)n(-c4c(F)cccc4F)n3)ccc2n1)C([2H])([2H])[2H] [Example 339] | < 100
CC(C)n1nnc2c(N3C[C@H](N)C4(CC4)C3)c(NC(=O)c3ccc(=O)n(-c4c(F)cccc4F)n3)ccc21 [Example 340, 1-(2,6-difluorophenyl)-N-{4-[(7R)-7-amino-5-azaspiro[2.4]heptan-5-yl]-1-(prop-2-yl)benzo[d][1,2,3]triazol-5-yl}-6-oxo-1,2-diazine-3-carboxamide] | < 100
CC(C)n1nnc2c(N3C[C@@H](C)[C@@H](N)C3)c(NC(=O)c3ccc(=O)n(-c4c(F)cccc4F)n3)ccc21 [Example 341, N-(4-((3R,4R)-3-amino-4-methylpyrrolidin-1-yl)-1-isopropyl-1H-benzo[d][1,2,3]triazol-5-yl)-1-(2,6-difluorophenyl)-6-oxo-1,6-dihydropyridazine-3-carboxamide] | < 100
N#Cc1ccncc1-c1ccc(NC(=O)c2ccc(=O)n(-c3c(F)cccc3F)n2)c(N2CCNCC2)c1 [Example 342, N-(4-(4-cyanopyridin-3-yl)-2-(piperazin-1-yl)phenyl)-1-(2,6-difluorophenyl)-6-oxo-1,6-dihydropyridazine-3-carboxamide] | < 100
N#Cc1ccncc1-c1ccc(NC(=O)c2ccc(=O)n(-c3c(F)cccc3F)n2)c(N2CC[C@@H](N)C2)c1 [Example 343, (R)-N-(2-(3-aminopyrrolidin-1-yl)-4-(4-cyanopyridin-3-yl)phenyl)-1-(2,6-difluorophenyl)-6-oxo-1,6-dihydropyridazine-3-carboxamide] | < 100
N#Cc1ccncc1-c1ccc(NC(=O)c2ccc(=O)n(-c3c(F)cccc3F)n2)c(N2CC[C@H](N)C2)c1 [Example 344, (S)-N-(2-(3-aminopyrrolidin-1-yl)-4-(4-cyanopyridin-3-yl)phenyl)-1-(2,6-difluorophenyl)-6-oxo-1,6-dihydropyridazine-3-carboxamide] | < 100
N#Cc1ccncc1-c1ccc(NC(=O)c2ccc(=O)n(-c3c(F)cccc3F)n2)c(N2CCC[C@@H](N)C2)c1 [Example 345, (R)-N-(2-(3-aminopiperidin-1-yl)-4-(4-cyanopyridin-3-yl)phenyl)-1-(2,6-difluorophenyl)-6-oxo-1,6-dihydropyridazine-3-carboxamide] | < 100
N#Cc1ccncc1-c1ccc(NC(=O)c2ccc(=O)n(-c3c(F)cccc3F)n2)c(N2CCC(N)CC2)c1 [Example 346, N-(2-(4-aminopiperidin-1-yl)-4-(4-cyanopyridin-3-yl)phenyl)-1-(2,6-difluorophenyl)-6-oxo-1,6-dihydropyridazine-3-carboxamide] | < 100
N#Cc1ccncc1-c1ccc(NC(=O)c2ccc(=O)n(-c3c(F)cccc3F)n2)c(N2C[C@@H](N)C[C@H]2CO)c1 [Example 347, N-(2-((2S,4S)-4-amino-2-(hydroxymethyl)pyrrolidin-1-yl)-4-(4-cyanopyridin-3-yl)phenyl)-1-(2,6-difluorophenyl)-6-oxo-1,6-dihydropyridazine-3-carboxamide] | < 100
C[C@]1(N)CCN(c2cc(-c3cnccc3C#N)ccc2NC(=O)c2ccc(=O)n(-c3c(F)cccc3F)n2)C1 [Example 348, (S)-N-(2-(3-amino-3-methylpyrrolidin-1-yl)-4-(4-cyanopyridin-3-yl)phenyl)-1-(2,6-difluorophenyl)-6-oxo-1,6-dihydropyridazine-3-carboxamide] | < 100
N#Cc1ccncc1-c1ccc(NC(=O)c2ccc(=O)n(-c3c(F)cccc3F)n2)c(N2CCC(O)CC2)c1 [Example 349, N-(4-(4-cyanopyridin-3-yl)-2-(4-hydroxypiperidin-1-yl)phenyl)-1-(2,6-difluorophenyl)-6-oxo-1,6-dihydropyridazine-3-carboxamide] | < 100
N#Cc1ccncc1-c1ccc(NC(=O)c2ccc(=O)n(-c3c(F)cccc3F)n2)c(N2CCN[C@H](CO)C2)c1 [Example 350, (S)-N-(4-(4-cyanopyridin-3-yl)-2-(3-(hydroxymethyl)piperazin-1-yl)phenyl)-1-(2,6-difluorophenyl)-6-oxo-1,6-dihydropyridazine-3-carboxamide] | < 100
N#Cc1ccncc1-c1ccc(NC(=O)c2ccc(=O)n(-c3c(F)cccc3F)n2)c(N2C[C@H](N)C[C@H]2CO)c1 [Example 351, N-(2-((2S,4R)-4-amino-2-(hydroxymethyl)pyrrolidin-1-yl)-4-(4-cyanopyridin-3-yl)phenyl)-1-(2,6-difluorophenyl)-6-oxo-1,6-dihydropyridazine-3-carboxamide] | < 100
